Reference: paper PMC12505664, “Enflicoxib for the long-term management of canine osteoarthritis—External validation of a population pharmacokinetic model in dogs with osteoarthritis” (Frontiers in Veterinary Science, 2025)
Where two headings read alike, the source gives them in different places.

Experiments:
canine osteoarthritis = test system: canine osteoarthritis; design: method as in Salichs et al., Vet Rec. 2022; settings: Mavacoxib group n=58, ref Salichs et al., Vet Rec. 2022, cited from earlier work
[1] = design: method as in PMID 34160092; settings: Beagle dogs, oral enflicoxib; cited from earlier work
[2] = overdose study, repeated weekly administrations, Beagle dogs; cited from earlier work
[3] = Plasma levels of enflicoxib and pyrazol metabolite in the 6-month field clinical study (HPLC-MS/MS); format: in vivo, client-owned dogs with OA; settings: for Mean plasma level: oral 8 mg/kg then 4 mg/kg weekly
Protocol: A prospective, multisite, blinded, randomized, placebo-controlled, parallel-group field study was performed in accordance with Good Clinical Practice standards ([16]). The study aimed to confirm the safety and efficacy of enflicoxib treatment of pain and inflammation associated with naturally occurring canine OA in dogs of any breed and sex treated for 6 months. The protocol was approved by the regulatory authorities of both Portugal and Hungary. Written informed consent was obtained from all dog owners prior to enrolment of their dogs. Dogs remained under the care of their owners at home throughout the study.
Before enrolment, all dogs underwent a physical examination, and blood and urine samples were taken. After enrollment, dogs were randomized in a predefined enflicoxib:placebo ratio of 3:1. Enflicoxib was dosed orally at weekly intervals, with an initial dose of 8 mg/kg, followed by once-a-week maintenance doses of 4 mg/kg for a total of 26 weeks. Dogs in the enflicoxib group received Daxocox® tablets (Ecuphar/Animalcare group), while dogs in the placebo group received the same formulation without the active ingredient under the same posology (number of tablets and dosing interval). […] No positive control was included due to difficulties in maintaining blinding with products under different posology during the entire follow-up period.
Two blood samples for popPK analysis were collected from all animals enrolled in the study one on day 44(±2 days)/1.5 months, (similar to the last sample taken in the previous clinical studies), after clinical assessment of pain and lameness and prior to treatment administration and another one at the end of the study on day 189/6 months (±2 days), or individual premature study termination day. Day 189 corresponds to the trough concentration after the 27th weekly administration (PK sample taken at the end of the weekly dosing interval). Meanwhile, day 44 corresponds to a PK sample obtained 2 days after the 7th weekly administration. The veterinary practices had the necessary resources and adequate freezing equipment for the long-term storage of plasma samples. Blood samples were collected into potassium-3-ethylenediaminetetraacetic acid (K3EDTA) labeled tubes, which were immediately centrifuged at ~2,500g for 10 min (at +4 °C whenever possible) to obtain plasma. Once received, plasma was transferred into two labeled propylene tubes (aliquots 1 and 2). Each plasma aliquot was stored frozen at a nominal temperature of −20 (±2) °C until shipment to the Laboratory of analysis Welab Barcelona (Parc Científic de Barcelona, C/Baldiri Reixac 4-12, 08028, Barcelona). The maximum storage time for the samples was 376 days at nominally −20 °C/−80 °C. Considering the long-term stability of enflicoxib and its metabolite in dog plasma samples stored at −20 °C, which spans a minimum of 402 days, the stability of the study samples was guaranteed for the entire duration of the study. Samples were analyzed without information on the treatment allocation (laboratory-blinded study).
Enflicoxib and pyrazol metabolite plasma levels were measured by a previously fully validated high-performance liquid chromatography (HPLC)-method coupled with tandem mass spectrometry (MS/MS) detection as described in Homedes et al. ([4]).

[4] = design: method as in PMID 34854245; settings: popPK model, cited from earlier work
[5] = Maximum a posteriori Bayesian (MAPB) estimation of individual PK parameters in dogs with OA; format: in vivo
Excerpt: As a similar PK behavior between populations was concluded, the same popPK model could be used, and a Bayesian approach was used for the determination of individual enflicoxib and the pyrazol metabolite exposure in osteoarthritic animals.
A maximum a posteriori Bayesian (MAPB) estimation using the post hoc subroutine in NONMEM was used to provide the individual PK parameters in osteoarthritic dogs.
MAPB estimation applied likelihood maximization in the form of minimizing the objective function (minus 2 log likelihood), to estimate individual PK parameters of each dog with OA. In this analysis, the MAPB estimation incorporated both a priori PK information, that is, the established PK model of enflicoxib and the pyrazol metabolite in healthy Beagle dogs, and a posteriori PK data, which corresponds to PK data from osteoarthritic dogs. The individual PK parameters along with individual predicted PK profiles for each dog treated with enflicoxib were calculated by fitting the animal PK dataset, which includes dosing, sampling times, parent and metabolite levels, and covariate information, to the established population enflicoxib and the pyrazol metabolite PK model in healthy Beagle dogs.
The maximum a posteriori Bayesian (MAPB) estimation was applied to provide the most likely individual PK profile for each dog with OA, using the “POSTHOC” subroutine and $ESTIMATION command set to MAXEVAL=0 in NONMEM.
Individual PK parameters and individual PK profiles of enflicoxib and the pyrazol metabolite were estimated for each dog.
Finally, the Bayesian approach enabled the estimation of the main individual PK parameters of enflicoxib and the pyrazol metabolite. Using these individual PK parameters, predicted profiles for each animal were estimated, allowing the calculation of the derived exposure parameters, such as Cmax, Cmin, AUCτ, and T1/2 in all treated dogs. The distribution and the mean estimates of enflicoxib and the pyrazol metabolite PK parameters at selected time points are depicted in Supplementary Figures S3, S4, respectively.

[6] = design: method as in PMID 34160092; settings: previously validated method, cited from earlier work
[7] = metabolite, typical value at 9.9 kg
[8] = weeks 12–26, Bayesian predicted profiles

Compound: NS(=O)(=O)c1ccc(-n2nc(C(F)(F)F)cc2-c2ccc(F)cc2)cc1 [Mavacoxib]
- Number of animals presenting AEs (%): Emesis or nausea (canine osteoarthritis; AEs classified A, B or O): 4 (6.9)
- Emesis and nausea: Number of events (canine osteoarthritis; AEs related to the GI system): 6
- Diarrhoea / pasty stools: Duration range (canine osteoarthritis): 1 to 4 days
- Diarrhoea / pasty stools: Mean duration (canine osteoarthritis): 2 days
- Diarrhoea / pasty stools: Number of events (canine osteoarthritis): 3
- Diarrhoea / pasty stools: Treatment needed (canine osteoarthritis): 0
- Emesis and nausea: Mean duration (canine osteoarthritis): 4.2 days
- Emesis and nausea: Treatment needed (canine osteoarthritis): 2
- Number of animals presenting AEs (%): Abdominal pain (canine osteoarthritis): 0
- Number of animals presenting AEs (%): Acute renal failure (canine osteoarthritis): 1 (1.7)
- Number of animals presenting AEs (%): Apathy (canine osteoarthritis): 0
- Number of animals presenting AEs (%): Constipation (canine osteoarthritis): 1 (1.7)
- Number of animals presenting AEs (%): Diarrhoea or pasty stools (canine osteoarthritis): 3 (5.2)
- Number of animals presenting AEs (%): Increased salivation (canine osteoarthritis): 0
- Number of animals presenting AEs (%): Polydipsia (canine osteoarthritis): 0
- Number of animals presenting AEs (%): Total (canine osteoarthritis): 6 (10.3)
- Number of animals presenting AEs (%): Weight loss (canine osteoarthritis): 0
- Emesis and nausea: Duration range (canine osteoarthritis; upper end one animal): 1 to 14 days

Compound: NS(=O)(=O)c1ccc(-n2nc(C(F)(F)F)cc2-c2ccc(F)cc2F)cc1 [Pyrazol metabolite]
- mean terminal elimination half-life (t 1/2) [1]: 17 days
- Dose proportionality of pharmacokinetics [2]: dose-proportional pharmacokinetics
- Mean plasma level ([3]; day 44 (2 days after 7th weekly administration), N=75): 2,105.6 ng/mL
- Max plasma level ([3]; day 44, N=75): 4,728.5 ng/mL
- Min plasma level ([3]; day 44, N=75): 2.5 ng/mL
- Probability (%) concentration < 10 ng/mL ([3]; day 44, N=75): 4.0%
- Probability (%) concentration < LOQ ([3]; day 44, N=75): 4.0%
- Probability (%) concentration < 10 ng/mL ([3]; day 44, N=75, listed as pyrazol metabolite): 4%
- Mean plasma level ([3]; day 93 (premature study termination), N=2): 3,928.8 ng/mL
- Max plasma level ([3]; day 93, N=2): 5,029.0 ng/mL
- Min plasma level ([3]; day 93, N=2): 2,828.5 ng/mL
- Probability (%) concentration < 10 ng/mL ([3]; day 93, N=2): 0.0%
- Probability (%) concentration < LOQ ([3]; day 93, N=2): 0.0%
- Mean plasma level ([3]; day 189 (trough after 27th weekly administration), N=65): 2,317.4 ng/mL
- Max plasma level ([3]; day 189, N=65): 7,541.8 ng/mL
- Min plasma level ([3]; day 189, N=65): 2.5 ng/mL
- Probability (%) concentration < 10 ng/mL ([3]; day 189, N=65): 4.6%
- Probability (%) concentration < LOQ ([3]; day 189, N=65): 1.5%
- Probability (%) concentration < 10 ng/mL ([3]; day 189, N=65, listed as pyrazol metabolite): 5%
- IIV of CLM/F (apparent clearance) ([4]; interindividual variability as % CV): 31%
- Residual variability ([4]; log error model, % CV): 20%
- CLM/F = θ7·(WGT/9.9)^0.75, θ7 estimate (apparent clearance) [4, 7]: 0.111 L/h
- VM/F = θ4·(WGT/9.9)^1.0, θ4 estimate (apparent volume of distribution, central compartment) [4, 7]: 6.59 L
- Time-dependent pharmacokinetics or over-accumulation ([5]; 6 months of weekly treatment): no evidence of time-dependent pharmacokinetics or over-accumulation
- Time to PK steady-state ([5]; weekly treatment): 10–12 weeks
- AUCτ [5, 8]: 16,742 ng/ml·day
- Cmax [5, 8]: ~ 2,490 ng/mL
- Cmin [5, 8]: 2,243 ng/mL
- Stability in dog plasma ([6]; following 4 freeze–thaw cycles): stable
- Stability in dog plasma ([6]; nominally −20 °C for 402 days): stable
- Stability in dog plasma ([6]; room temperature for 4 h): stable
- Long-term stability in dog plasma samples ([6]; stored at −20 °C): ≥ 402 days
